Source: a melting point compilation (Tetko et al.; mined from patent text by program, amines drawn as free bases though some values may be those of a salt)

In the case of `Fc1ccc(Oc2ccc(-c3c[nH]cn3)cc2)cc1`, the melting point is reported as 165 to 168 °C.
Molecule `CC(=O)N(Cc1ccc2c(c1)OCO2)c1ccc(Oc2ccccc2)cc1` has a melting point of 75 to 76 °C.
`COc1ccc2c3c([nH]c2c1)C(=O)C(CC1CCN(C(=O)OC(C)(C)C)CC1)C3` (stereo not drawn) showed a melting point of 192 to 193 °C.
For `CC(C)CN1C(=O)c2cnc(-c3ccccc3)nc2Nc2ccccc21`, the melting point was 203 to 204 °C.
In the case of `CC(C)(C)CNc1nc(-c2[nH]c(C(C)(C)C)nc2-c2ccccc2)ccc1[N+](=O)[O-]`, the melting point is reported as 224 to 226 °C.
In the case of `COc1ccc(-c2nc(NC(=O)c3cccnc3)sc2-c2ccnc(NC(=O)c3cccnc3)c2)cc1`, the melting point is reported as 229 to 232 °C.
In the case of `CC(C)(C)C(=O)Nc1cnc(C(=O)CO)cn1`, the melting point is reported as 169 to 172 °C.
For `Cc1c(C=O)c2c(c(C)c1NC=O)C(c1ccc(C(C)C)cc1)CO2` (stereo not drawn), the melting point was 123 to 124 °C.
In the case of `CCOP(=O)(CNCc1cccnc1-c1cc(C(C)(C)C)c(O)c(C(C)(C)C)c1)OCC`, the melting point is reported as 100 to 101 °C.
Work on `O=C(O[C@@H]1CC[C@H]1Br)c1ccccc1` (relative stereo) yielded a melting point of 38 to 40 °C.
`Cc1c(SCc2cccs2)ccnc1CSc1nc2ccccc2[nH]1` gave a melting point of 131 to 133 °C.
`COc1ccc(OC)c(-c2nnc3ccc(Cl)nn23)c1` showed a melting point of 111 to 112 °C.
For `COc1ccc2c(c1)C(OC(C)C)=C(C(N)=O)S2=O` (stereo not drawn), the melting point was 168 to 170 °C.
In the case of `O=C(NCCO)c1cccc(-c2ccc3c(c2)N(c2ccc(Cl)cc2Cl)CCCC3)c1`, the melting point is reported as 172 to 173 °C.
For `CN1Cc2c([N+](=O)[O-])ncn2-c2ccccc2C1=O`, the melting point was 227 to 229 °C.
For `CCC(=O)N1CCC(NC(=O)Nc2ccc(C(=O)OC)cc2)CC1`, the melting point was 201 to 204 °C.
`CCOC(=O)CCc1nc2cc3c(cc2[nH]1)NC(=O)C3(C)C` showed a melting point of 194 to 196 °C.
With `O=C(O)C=CC(=S)c1ccc(-c2ccccc2)cc1` the melting point was 157 to 159 °C.
Work on `CCOC(=O)c1cn(CCc2ccccc2)c2oc(CN3CCOCC3)cc2c1=O` yielded a melting point of 150 to 153 °C.
With `CN(C)C(=O)c1c(-c2ccccc2)ccc2ccccc12` the melting point was 133 to 134 °C.
In the case of `CCCCN(CCCC)Cc1nc(-c2ncn3c2CN(C)C(=O)c2ccccc2-3)no1`, the melting point is reported as 105 to 110 °C.
For `O=C(O)C1([N+](=O)[O-])C(c2ccc([N+](=O)[O-])cc2)N=C2C=CC=CN21` (stereo not drawn), the melting point was > 300 °C.
For `CCOC(=O)c1nn(C(=O)Nc2ccccc2)c(C)c1C`, the melting point was 139 to 140 °C.
Work on `CCSc1cc(C)nc(SCC)c1NC(=O)CCCCSc1nc2ccccc2o1` yielded a melting point of 122 to 123 °C.
Molecule `Cc1ccc(-c2nc(Cc3cccc(C=O)c3)c(C)o2)cc1` has a melting point of 98 to 99 °C.
`COC(=O)c1cc(OCc2ccccc2)c(OCc2ccccc2)c(OCc2ccccc2)c1` gave a melting point of 102 to 103 °C.
With `O=C(O)c1ccc2oc(-c3ccc(C(F)(F)F)cc3)cc2c1` the melting point was > 260 °C.
`Cc1noc(NS(=O)(=O)c2ccccc2-c2ccc(-c3ncco3)cc2Cc2ncco2)c1C` gave a melting point of 88 to 95 °C.
In the case of `CC1OC1C1CC(O)C2(C)CCC3C(CCC4CC(OC5CCCCO5)CC(C)C43C)C12` (stereo not drawn), the melting point is reported as 172 to 174 °C.
In the case of `CC(C)(CO)Cc1ccccc1`, the melting point is reported as 34 to 36 °C.
Molecule `CC1(C2CCCC2)Cc2cc(OCCBr)c(Cl)c(Cl)c2C1=O` (stereo not drawn) has a melting point of 124 to 125 °C.
`COC(=O)NC1CCC(Nc2ncc3c(N)cc(=O)n(CCCO)c3n2)CC1` (stereo not drawn) gave a melting point of 190 to 191 °C.
With `CNc1nc(Cl)c(OC(F)F)c(N(C)C)n1` the melting point was 127 to 130 °C.
Work on `O=C(O)c1cccc(-c2ccc(F)c3cc(Cc4cc(F)cc(Cl)c4)sc23)c1` yielded a melting point of 185 to 186 °C.
Work on `CN(C)C=CC(=O)c1ccc(C(=O)N2Cc3cccn3Cc3ccccc32)cc1` yielded a melting point of 203 to 205 °C.
With `Cc1cc(C=C2SCNC2=O)cc(C(C)(C)C)c1O` the melting point was 162 to 165 °C.
`O=C1c2ccccc2C(O)(C(F)(F)F)c2ccccc21` gave a melting point of 153 to 155 °C.
Molecule `CCOC(=O)c1cn(C2CC2)c2nc(N3CCC(NCC(C)=O)C3)c(F)cc2c1=O` (stereo not drawn) has a melting point of 203 to 204 °C.
Work on `O=S(=O)(Nc1cccc(F)c1)c1cc(S(=O)(=O)Nc2cccc(F)c2)c2cc(O)ccc2c1` yielded a melting point of 110 to 112 °C.
`O=C1c2ccccc2CN1C1CCN(c2ccc(C(OCc3ccccc3)c3ccccc3)cc2)CC1` (stereo not drawn) gave a melting point of 112 to 115 °C.
In the case of `CCOC(=O)CNC(=O)CCl`, the melting point is reported as 60 to 62 °C.
`CCNc1c(OC)cc(C(O)CS(C)(=O)=O)cc1OC` (stereo not drawn) showed a melting point of 121 to 122 °C.
`CN(CCF)c1nc2cc(NC(=O)c3c(C(=O)N4CC(F)C4)cnn3C)ccn2n1` showed a melting point of 233 to 236 °C.
Molecule `C[C@]1(CN2CCN(c3ccc(OC(F)(F)F)cc3)CC2)Cn2cc([N+](=O)[O-])nc2O1` has a melting point of 129 to 130 °C.
In the case of `Cc1cn(C2OC(CO)C(O)C2O)c(=O)[nH]c1=O` (stereo not drawn), the melting point is reported as 244 to 249 °C.
`CNC(=O)c1ccccc1Sc1ccc(F)cc1[N+](=O)[O-]` showed a melting point of 111 to 113 °C.
With `O=C(O)[C@]12CCCC[C@H]1CCc1ccccc12` (relative stereo) the melting point was 142 to 144 °C.
For `COc1cc(COc2cc(/C=C/C(=O)O)n(-c3ccccc3)n2)ccc1OCc1nc(-c2ccco2)oc1C`, the melting point was 191 to 192 °C.
`Nc1cc(OCc2ccccc2)nc(N)n1` gave a melting point of 195 °C.
In the case of `O=S(=O)(Nc1cccc(CCOCc2cccc(-c3ccccc3)n2)c1)C(F)(F)F`, the melting point is reported as 75 to 77 °C.
Molecule `Nc1ncnc2c1ncn2[C@@H]1O[C@H](CSCCO)[C@@H](O)[C@H]1O` has a melting point of 198 to 201 °C.
Molecule `Cc1ccc(S(=O)(=O)CNC=O)cc1` has a melting point of 103 to 107 °C.
`CNC(=O)c1ccccc1Nc1nc(Nc2cc3c(cc2OC)CCN(CCOC)CC3)ncc1Cl` gave a melting point of 109 to 112 °C.
In the case of `Cn1cc(C2=C(c3cn(CCCNc4ncccn4)c4ccccc34)C(=O)NC2=O)c2ccccc21`, the melting point is reported as 214 to 215 °C.
`CNC(=S)NCCS(=O)Cc1cncn1C` (stereo not drawn) gave a melting point of 139 to 140 °C.
`COc1ccc(C(CNc2ncnc3c2ncn3C2OC(CO)C(O)C2O)c2ccccc2)cc1` (stereo not drawn) showed a melting point of 87 to 92 °C.
Molecule `Cc1noc(-c2ccc(-c3cscn3)cc2)c1-c1ccc(S(N)(=O)=O)cc1` has a melting point of 236 °C.
Molecule `CCCCC/C(=C\C=C\C(=O)O)c1ccc(OC)c(OC)c1` has a melting point of 98 to 99.5 °C.
Work on `COc1ccc2c(c1)c(CC(=O)OCCNC(=O)c1cccnc1)c(C)n2C(=O)c1ccc(Cl)cc1` yielded a melting point of 123 to 125 °C.
Work on `CCOC(=O)C1(C)Oc2c(OC)cccc2C1=O` (stereo not drawn) yielded a melting point of 81 to 82 °C.
In the case of `Cn1c(C(F)(F)F)cc(=O)n(-c2cc(C=O)c(Cl)cc2F)c1=O`, the melting point is reported as 172 to 174 °C.
With `N#Cc1c(N)cccc1[N+](=O)[O-]` the melting point was 196 to 198 °C.
Molecule `CCOCCN(C(=O)Nc1ccc(C(=O)O)cc1)c1ccc2c(c1)C(C)(C)CCC2(C)C` has a melting point of 82 to 85 °C.
Molecule `Clc1ccc(-c2cn([C@H]3CN4CCC3CC4)nn2)cc1Cl` has a melting point of 108 °C.
Work on `CCCn1nc2c(N)nc3ncccc3c2c1CC(C)(C)O` yielded a melting point of 252 to 255 °C.
`N#CCOc1ccc(F)c(C(N)=O)c1F` showed a melting point of 122 to 123 °C.
For `CCCCOCCOc1ccc(-c2ccc(N3CCCCC3C)c(C=CC(=O)O)c2)cc1` (stereo not drawn), the melting point was 106 to 108 °C.
In the case of `O=C(O)c1ccc(NC(=O)c2ccncc2)cc1`, the melting point is reported as 362 to 365 °C.
`CC1(C)CC(OC(=O)c2ccccc2)CC(C)(C)N1OCC=Cc1ccccc1` gave a melting point of 115 to 116 °C.
`CCOc1ccc(C2=NN(CCCCCC(=O)O)C(=O)[C@H]3CC=CC[C@@H]23)cc1OCC` (relative stereo) showed a melting point of 97 to 99 °C.
For `OC(CNCCCc1ccccc1)COc1cccc2[nH]ncc12` (stereo not drawn), the melting point was 122 to 124 °C.
Work on `CCOC(=O)c1[nH]nnc1Nc1ccc(Cl)cc1` yielded a melting point of 161 °C.
`CC(C)C(=O)NCC(=NNC(N)=S)c1ccccc1` showed a melting point of 183 to 185 °C.
With `C=CCOc1ccc(Br)cc1C(C)=NO` the melting point was 110 to 111 °C.
`Cc1ccc(-c2nnc(N3CCC(O)CC3)nc2-c2ccc(C)cc2)cc1` showed a melting point of 167 to 168 °C.
`CCOC(=O)N1CCC(n2nc(Cc3ccc(F)cc3)c3ccccc3c2=O)CC1` gave a melting point of 151 to 152 °C.
`O=C(c1ccc(O)cc1)c1nn(C2CCCC2)c2c(C(F)(F)F)cccc12` showed a melting point of 225 to 226 °C.
With `O=C(OCC1OC(n2cc(F)c(=O)[nH]c2=O)CC1OCc1ccccc1)c1cccnc1` (stereo not drawn) the melting point was 130 to 132 °C.
Molecule `CCOc1cc2ncc(C#N)c(NCc3ccc(OC)c(OC)c3)c2cc1OCC` has a melting point of 200 to 204 °C.
`O=C(O)c1ccc(OCC2CN(c3ccc([N+](=O)[O-])cc3)C(=O)O2)cc1` (stereo not drawn) gave a melting point of 236 to 238 °C.
For `CCN(CC)C(=O)Nc1ccc(S(=O)(=O)N2C(=O)C(NCCN3CCNCC3)(c3ccccc3Cl)c3cc(Cl)ccc32)cc1` (stereo not drawn), the melting point was 260 °C.
In the case of `O=C1N(N2CCCCC2)c2ccccc2C1(Cc1ccncc1)Cc1ccncc1`, the melting point is reported as 140 to 143 °C.
With `CCCCCCCCCCOc1ccc(C(=O)O)cc1C12CC3CC(CC(C3)C1)C2` the melting point was 151 to 152 °C.
Molecule `CC(O)(c1nc2ccc([N+](=O)[O-])cc2[nH]1)C(F)(F)F` (stereo not drawn) has a melting point of 73 to 75 °C.
For `O=C(NC1CCCCC1)NC1(N=NC2(NC(=O)NC3CCCCC3)CCCCC2)CCCCC1`, the melting point was 105 to 109 °C.
`CSCc1cn(C)c2cc(Cl)ccc2c1=O` showed a melting point of 163 to 164 °C.
For `Nc1nc(Cl)c2ncn(CC3CCOCO3)c2n1` (stereo not drawn), the melting point was 169 to 170 °C.
`CN(C)CCCOc1ccc(-c2nnc(CSCCOc3ccccc3)n2-c2ccccc2)cc1` showed a melting point of 120 to 123 °C.
In the case of `CC(=O)OC1C(C)=C(C)C(=O)N1c1ccc(Cl)c(Cl)c1` (stereo not drawn), the melting point is reported as 109 to 110 °C.
Work on `CC(C)Cn1c(=O)n(C)c(=O)c2c(CCCCC(=O)O)n(Cc3cccc4ccccc34)cc21` yielded a melting point of 146 to 147 °C.
`COC(=O)c1ccc(Cc2c(C)[nH]c(C)cc2=O)cc1` showed a melting point of 226 to 228 °C.
`CCOC(=O)c1cc(O)c(C(=O)NCc2ccccc2)cc1O` gave a melting point of 110 °C.
`CCOC(=O)CC(NCCCN(C)C)C(=O)O` (stereo not drawn) gave a melting point of 168 to 169 °C.
With `CC(C)Oc1cc(CCC(=O)NS(=O)(=O)CCCc2ccccc2)n(Cc2ccc(Cl)cc2Cl)n1` the melting point was 132 to 134 °C.
`O=C(O)c1cccc(-c2cccc(CC(=O)N(Cc3ccccc3)C3c4ccccc4CCC3Cc3ccccc3)c2)c1` (stereo not drawn) gave a melting point of 171 to 172 °C.
`Cc1ccc2oc(=O)n(-c3ccnc(NC(=O)NCc4ccccn4)c3)c2c1` showed a melting point of 205 to 206 °C.
For `CC(=O)NS(=O)(=O)c1cccc(-c2cccc(-c3cc(-c4ccc(C(F)(F)F)cc4)cc(C)n3)n2)c1`, the melting point was 244 °C.
Molecule `O=C(CN1CCCC1=O)N1CCN(C(=O)CN2CC(c3ccc(Cl)cc3)CC2=O)CC1` (stereo not drawn) has a melting point of 224 to 226 °C.
